Patent US5256788A, “Moranoline derivatives and their production and the use of moranoline and its derivatives as a stabilizing agent for enzymes” (Nippon Shinyaku Co. Ltd., priority 1989, dated 1993)

Target: T1, immobilized CGTase (Geobacillus stearothermophilus, UniProt P31797)
T1 construct: purchased Hayashibara Biochemical Research Institute
T1 sequence (P31797 32-711): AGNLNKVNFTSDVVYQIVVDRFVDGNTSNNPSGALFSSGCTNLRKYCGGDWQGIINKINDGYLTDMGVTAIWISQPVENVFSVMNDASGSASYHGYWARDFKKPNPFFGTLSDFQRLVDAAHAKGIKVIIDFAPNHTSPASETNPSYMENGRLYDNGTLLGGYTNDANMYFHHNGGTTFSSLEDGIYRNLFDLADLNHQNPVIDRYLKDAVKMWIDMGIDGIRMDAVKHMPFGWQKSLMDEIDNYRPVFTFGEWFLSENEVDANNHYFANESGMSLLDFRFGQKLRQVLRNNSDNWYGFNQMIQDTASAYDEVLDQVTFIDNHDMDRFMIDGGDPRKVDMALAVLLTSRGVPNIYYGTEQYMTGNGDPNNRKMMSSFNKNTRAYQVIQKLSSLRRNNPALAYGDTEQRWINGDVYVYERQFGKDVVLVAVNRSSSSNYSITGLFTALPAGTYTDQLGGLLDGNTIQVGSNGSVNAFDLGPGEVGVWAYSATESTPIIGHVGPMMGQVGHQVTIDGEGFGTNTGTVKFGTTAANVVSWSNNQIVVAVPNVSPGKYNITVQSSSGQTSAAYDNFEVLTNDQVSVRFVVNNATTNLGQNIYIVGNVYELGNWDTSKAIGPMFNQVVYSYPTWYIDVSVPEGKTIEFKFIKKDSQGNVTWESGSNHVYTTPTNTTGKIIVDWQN
Experiment: Stabilization of immobilized CGTase in sugar transfer reaction solution of moranoline (enzyme activity retention rate)
Assay type: biochemical, Bacillus stearothermophilus
Conditions: 2.5 w/v% moranoline and 25 w/v% Amicol No. 6L
Procedure: (§1) The immobilized CGTase, 10 ml, obtained in Reference Example 1 was added to 100 ml of aqueous solution with the pH being not adjusted containing 2.5 w/v% of moranoline and 25 w/v% of Amicol No. 6L [manufactured by Nichiden Chemical Co., Ltd.] followed by rotary shaking at 55° C. Thereafter, beads formed and (after a definite period of time as illustrated below) the beads (immobilized CGTase) were filtered through a glass filter. After thoroughly washing with water, the enzyme activity of the immobilized CGTase was determined as follows.
(§2) The beads (washed immobilized CGTase after a definite period of time at 55° C.), 1 ml, was added to 10 ml of aqueous solution with the pH being not adjusted containing 2.5 w/v% of moranoline and 25 w/v% of Amicol No. 6L followed by reacting at 55° C. for 24 hours. The reaction solution 3 ml, was passed through 7 ml of strongly acidic ion exchange resin DOWEX 50W×2 (H ). After thoroughly washing with water, elution was performed with 0.5N ammonia water. The eluate was concentrated to dryness under reduced pressure and the residue was dissolved in 3 ml of water. 10 μl of the solution was applied to and analyzed by high performance liquid chromatography to determine a concentration of the unreacted moranoline. The analytical conditions for high performance liquid chromatography were as follows: column (Nucleosil 5NH2, 5 μm, 4 mm i.d.×25 cm), developing solvent acetonitrile-water=70:30), detector (Hitachi 655A-30, RI detector), data processor (Hitachi D-2000). [formula]
Where the reaction progress rate was made 100 when rotary shaking started at 55° C., a relative reaction progress rate after a definite period of time passed was calculated according to the above equation. The thus obtained value was made an enzyme activity retention rate. The fact that the enzyme activity of the immobilized CGTase was stabilized by the moranoline in accordance with the present invention is clearly shown.
as §1, with “Example A” for “Example 1”, “C. After” for “C. Thereafter, beads formed and (after”, “time passed,” for “time as illustrated below)”, “follows. (Method for determination of enzyme activity of immobilized CGTase)” for “follows.”
as §2, with “24 hours” for “24 hours.”, “reaction liquid,” for “reaction solution”, “DOWEX 50W X 2 (H+).” for “DOWEX 50W×2 (H ).”, “mm i.d. X 25” for “mm i.d.×25”
Where the reaction progress rate was made 100 when rotary shaking started at 55° C., a relative reaction progress rate after a definite period of time passed was calculated according to the above equation. The thus obtained value was made an enzyme activity retention rate.

OC[C@H]1NC[C@H](O)[C@@H](O)[C@@H]1O [moranoline]
activity at 25000 µg/mL (0 h, day 0, 55° C., start made 100): 100% | activity at 25000 µg/mL (336 h, day 14, 55° C.): 100% | activity at 25000 µg/mL (504 h, day 21, 55° C.): 103% | activity at 25000 µg/mL (672 h, day 28, 55° C.): 102% | activity at 25000 µg/mL (888 h, day 37, 55° C.): 101% | activity at 25000 µg/mL (1272 h, day 53, 55° C.): 102% | activity at 25000 µg/mL (1560 h, day 65, 55° C.): 104% | activity at 25000 µg/mL (1872 h, day 78, 55° C.): 101% | activity at 25000 µg/mL (2232 h, day 93, 55° C.): 99.7% | activity at 25000 µg/mL (2400 h, day 100, 55° C.): 100% | activity at 25000 µg/mL (2856 h, day 119, 55° C.): 97% | activity at 25000 µg/mL (3360 h, day 140, 55° C.): 100% | activity at 25000 µg/mL (3912 h, day 163, 55° C.): 99.3% | activity at 25000 µg/mL (4272 h, day 178, 55° C.): 98.4% | activity at 25000 µg/mL (4752 h, day 198, 55° C.): 92.5% | activity at 25000 µg/mL (5040 h, day 210, 55° C.): 95.6% | activity at 25000 µg/mL (5544 h, day 231, 55° C.): 92.5% | activity at 25000 µg/mL (5904 h, day 246, 55° C.): 93% | activity at 25000 µg/mL (6288 h, day 262, 55° C.): 92.3% | activity at 25000 µg/mL (6576 h, day 274, 55° C.): 92.5% | activity at 25000 µg/mL (6912 h, day 288, 55° C.): 91.7% | activity at 25000 µg/mL (7248 h, day 302, 55° C.): 92% | activity at 25000 µg/mL (7728 h, day 322, 55° C.): 92.7% | activity at 25000 µg/mL (8136 h, day 339, 55° C.): 91.5% | activity at 25000 µg/mL (8472 h, day 353, 55° C.): 93.9% | activity at 25000 µg/mL (8784 h, day 366, 55° C.): 90% | activity at 25000 µg/mL (9912 h, day 413, 55° C.): 90%
